The supplement of paper PMC10307832

Legend:
Test in all cases: relative viability (nuclei count vs DMSO), 5 days (fraction); higher = more cells survive
[1] = compound: Cn1cncc1[C@@](N)(c1ccc(Cl)cc1)c1ccc2c(c1)c(-c1cccc(Cl)c1)cc(=O)n2C [Tipifarnib] + CS(=O)(=O)CCNCc1ccc(-c2ccc3ncnc(Nc4ccc(OCc5cccc(F)c5)c(Cl)c4)c3c2)o1 [Lapatinib] (partner 2 µM)
How it was run: (§1)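 Relative viability is defined as nuclei in treated wells over nuclei in vehicle wells. Duplicate plates were run and medians reported. Lung cancer cell lines in 1536-well plates were dosed by pin tool one day after seeding, with one drug or with a fixed anchor-drug dose plus five library-drug doses (not always all listed) in √10 steps, and nuclei were counted after 5 days.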

[2] = compound: Cn1cncc1[C@@](N)(c1ccc(Cl)cc1)c1ccc2c(c1)c(-c1cccc(Cl)c1)cc(=O)n2C [Tipifarnib] + NC(=O)Nc1cc(-c2cccc(F)c2)sc1C(=O)N[C@H]1CCCNC1 [AZD7762] (partner 0.2 µM)
How it was run: as §1

[3] = compound: Cn1cncc1[C@@](N)(c1ccc(Cl)cc1)c1ccc2c(c1)c(-c1cccc(Cl)c1)cc(=O)n2C [Tipifarnib] + Nc1ncn([C@H]2C[C@H](O)[C@@H](CO)O2)c(=O)n1 [Decitabine] (partner 2 µM)
How it was run: as §1

[4] = compound: Cn1cncc1[C@@](N)(c1ccc(Cl)cc1)c1ccc2c(c1)c(-c1cccc(Cl)c1)cc(=O)n2C [Tipifarnib] + O=C(c1cc(Cc2n[nH]c(=O)c3ccccc23)ccc1F)N1CCN(C(=O)C2CC2)CC1 [Olaparib] (partner 8 µM)
How it was run: as §1

Cell Line | relative viability ([1]; first compound 0.01 µM) | relative viability ([1]; first compound 0.03162 µM) | relative viability ([1]; first compound 0.1 µM) | relative viability ([1]; first compound 0.3162 µM) | relative viability ([1]; first compound 1 µM) | relative viability ([2]; first compound 0.01 µM) | relative viability ([2]; first compound 0.03162 µM) | relative viability ([2]; first compound 0.1 µM) | relative viability ([2]; first compound 0.3162 µM) | relative viability ([2]; first compound 1 µM) | relative viability ([3]; first compound 0.01 µM) | relative viability ([3]; first compound 0.03162 µM) | relative viability ([3]; first compound 0.1 µM) | relative viability ([3]; first compound 0.3162 µM) | relative viability ([3]; first compound 1 µM) | relative viability ([4]; first compound 0.01 µM) | relative viability ([4]; first compound 0.03162 µM) | relative viability ([4]; first compound 0.1 µM) | relative viability ([4]; first compound 0.3162 µM) | relative viability ([4]; first compound 1 µM)
NCI-H1395 | 1.03 | 0.85 | 0.82 | 0.68 | 0.48 | 0.363 | 0.367 | 0.398 | 0.375 | 0.329 | 0.7 | 0.674 | 0.59 | 0.626 | 0.654 | 0.444 | 0.5 | 0.454 | 0.421 | 0.473
NCI-H1437 | 0.873 | 0.864 | 0.738 | 0.727 | 0.248 | 1.12 | 1.14 | 1.1 | 1.06 | 1.11 | 0.597 | 0.618 | 0.613 | 0.635 | 0.593 | 0.656 | 0.638 | 0.643 | 0.585 | 0.608
NCI-H1651 | 0.931 | 0.799 | 0.919 | 0.85 | 0.426 | 0.536 | 0.467 | 0.524 | 0.44 | 0.363 | 0.667 | 0.597 | 0.658 | 0.761 | 0.421 | 0.213 | 0.194 | 0.236 | 0.22 | 0.222
NCI-H1666 | 0.666 | 0.61 | 0.591 | 0.474 | 0.388 | 0.892 | 0.807 | 0.794 | 0.661 | 0.554 | 0.698 | 0.739 | 0.768 | 0.598 | 0.571 | 0.737 | 0.672 | 0.779 | 0.731 | 0.721
NCI-H1734 | 1.18 | 0.995 | 0.682 | 0.618 | 0.431 | 0.537 | 0.46 | 0.403 | 0.352 | 0.257 | 0.565 | 0.485 | 0.557 | 0.434 | 0.369 | 0.626 | 0.615 | 0.54 | 0.494 | 0.482
NCI-H1755 | 1.03 | 0.988 | 0.981 | 0.906 | 0.507 | 0.411 | 0.453 | 0.416 | 0.365 | 0.395 | 0.726 | 0.761 | 0.739 | 0.746 | 0.741 | 0.869 | 0.86 | 0.875 | 0.891 | 0.898
NCI-H1792 | 0.942 | 0.941 | 0.782 | 0.574 | 0.298 | 0.722 | 0.417 | 0.373 | 0.237 | 0.173 | 0.446 | 0.439 | 0.308 | 0.28 | 0.272 | 0.301 | 0.279 | 0.208 | 0.169 | 0.122
NCI-H1793 | 0.882 | 0.691 | 0.742 | 0.381 | 0.52 | 0.605 | 0.426 | 0.379 | 0.302 | 0.2 | 0.555 | 0.427 | 0.374 | 0.338 | 0.365 | 0.875 | 0.718 | 0.809 | 0.695 | 0.608
NCI-H1915 | 0.927 | 0.67 | 0.56 | 0.416 | 0.282 | 0.643 | 0.583 | 0.398 | 0.332 | 0.319 | 0.272 | 0.245 | 0.284 | 0.232 | 0.257 | 0.237 | 0.248 | 0.25 | 0.231 | 0.242
NCI-H1944 | 0.854 | 0.622 | 0.599 | 0.444 | 0.342 | 0.515 | 0.435 | 0.295 | 0.299 | 0.306 | 0.421 | 0.452 | 0.413 | 0.346 | 0.404 | 0.41 | 0.364 | 0.356 | 0.376 | 0.382
NCI-H1975 | 1.01 | 0.933 | 0.933 | 0.631 | 0.65 | 0.89 | 0.9 | 0.688 | 0.623 | 0.616 | 0.425 | 0.419 | 0.37 | 0.317 | 0.317 | 0.863 | 0.764 | 0.782 | 0.559 | 0.505
NCI-H1993 | 0.747 | 0.835 | 0.699 | 0.716 | 0.779 | 0.765 | 0.591 | 0.571 | 0.437 | 0.484 | 0.666 | 0.551 | 0.579 | 0.528 | 0.545 | 1.04 | 0.94 | 0.937 | 0.701 | 0.604
NCI-H2085 | 0.846 | 0.659 | 0.633 | 0.523 | 0.533 | 0.979 | 0.73 | 0.67 | 0.478 | 0.552 | 0.558 | 0.59 | 0.519 | 0.493 | 0.536 | 0.823 | 0.758 | 0.613 | 0.513 | 0.7
NCI-H2087 | 0.934 | 0.493 | 0.475 | 0.404 | 0.344 | 0.99 | 0.48 | 0.249 | 0.241 | 0.395 | 0.348 | 0.262 | 0.259 | 0.205 | 0.206 | 0.538 | 0.499 | 0.341 | 0.281 | 0.275
NCI-H2126 | 0.782 | 0.724 | 0.769 | 0.761 | 0.469 | 1.01 | 1 | 0.991 | 0.962 | 0.716 | 0.576 | 0.582 | 0.578 | 0.519 | 0.53 | 0.927 | 0.885 | 0.844 | 0.843 | 0.879
NCI-H2170 | 0.245 | 0.271 | 0.272 | 0.265 | 0.248 | 0.98 | 0.885 | 0.701 | 0.644 | 0.506 | 0.533 | 0.441 | 0.465 | 0.43 | 0.412 | 0.687 | 0.582 | 0.536 | 0.47 | 0.474
